Assay: Water solubility
Conditions: in 100 g of water at 25° C., 24 hours, visual evaluation
Source text: As used herein, the term “solubility” used herein in regard to water solubility includes cases where the sample completely dissolves in deionized water to form a homogeneous mixture, and cases where the sample is completely emulsified. As used herein, “completely” means that none of the sample remains in the deionized water.

Water solubility (Table 2): <0.05 g
Water solubility (Table 3): <0.05 g
Compound: CCCCC(CC)C(=O)OCC(C)(C)COC(=O)C(CC)CCCC (centres unmarked) [H-208BRS, Neopentylglycol di(2-ethylhexanoate)]
